The results in this text go back to patent US6890969B2, “Polymer emulsion preservation using cationic compounds” (Air Products Polymers, L.P., priority 2000, dated 2005).

Assay [1] deals with GABL. The assay is described as follows: GABL biochallenge test of preserved polymer emulsions (streak plate / RABIT), inoculations passed. Format: cell-based, Gluconoacetobacter liquefaciens. The conditions noted are these: for Inoculations Passed: PVOH-stabilized VAE emulsion, Tg 0 °C, <1000 ppm vinyl acetate; for preservative quality against GABL compared with cationic compounds (in words): common industrial biocides, CIT/MIT limited to 50 ppm, DBNPA to 100 ppm; for efficacy against GABL (in words): even at doses of 450 and 500 ppm; for preservative efficacy against GABL (in words): dosages similar to 200 ppm, failing immediately after the initial GABL inoculation. As for the experimental part: GABL Inoculum Preparation
A recently isolated culture of GABL was grown on potato dextrose agar slants by inoculating the agar surface. The potato dextrose agar slants were incubated for 48-72 hours at 25° C. After this incubation period, GABL cells were harvested using quarter strength Ringers solution to wash the GABL colonies off of the agar surface. The washings from each slant were combined into one sterile, Erlenmeyer flask. The number of slants and the amount of quarter strength Ringers solution used to wash off the GABL colonies was adjusted during the procedure to obtain a final microbial viable count in the range of 10^8-10^10 CFU/mL.
Rapid Automated Bacterial Impedance Technique (RABIT): supplied by Microbiology International, manufactured by Don Whitley Scientific, Ltd.
RABIT utilizes the principal of impedance microbiology to detect and assess microbial activity in a given sample. Using the RABIT, microbial metabolism is monitored by measuring the amount of carbon dioxide produced by actively respiring microorganisms. The electrodes in the RABIT test cells are partially covered with alkaline agar containing potassium hydroxide. As inoculated test samples are monitored on the RABIT, carbon dioxide produced from microbial metabolism is absorbed by the alkaline agar resulting in a change in conductivity. Conductivity is monitored with time and the time to reach a pre-specified rate of reduction in conductivity is termed the time to detection (TTD). Therefore, the shorter the TTD, the higher the number of microorganisms present. Failure can be defined as three successive decreases in conductivity equal to or greater than a pre-specified value (−10 microSiemens is recommended by the manufacturer) at any time during the 72 hour RABIT monitoring period. Alternatively, failure can be defined as a pre-specified total change in conductivity.
Biochallenge Test Procedure
Samples (50 g each) of each test emulsion containing a test antimicrobial agent were inoculated with 1.0 mL of the GABL inoculum. After mixing well, the samples were then placed in a 30° C. incubator. After 1, 2, and 6 days of incubation each sample was streak plated onto potato dextrose agar to assess the level of surviving GABL microorganisms. The potato dextrose agar plates were incubated at 25° C. for 48-72 hours before assessing the growth. On the seventh day of incubation, each test emulsion sample was inoculated again with a freshly prepared GABL inoculum, mixed well, then placed back into the incubator. The samples were again streak plated onto potato dextrose agar after incubating for 1, 2, and 6 days since the second inoculation. On the fourteenth day after the test was initiated, the test emulsions were inoculated a third time with another freshly prepared GABL inoculum and then placed back into the incubator. The samples were again streak plated onto potato dextrose agar after 1, 2, 6, and 13 days of incubation since the third inoculation to assess surviving microorganisms. Test failure is defined as a microbial viable count >300 CFU/10 μL observed from the potato dextrose agar streak plate assessments.
Biochallenge Test Procedure Via the RABIT
A small amount of a microbial nutrient was added to each emulsion test sample (50 g) containing a test antimicrobial agent. The resulting samples were then inoculated with 1.0 mL of the GABL inoculum. After mixing well, an aliquot (5 g) of each test sample was placed into separate RABIT indirect conductivity tubes. The indirect conductivity tubes were then placed into the RABIT incubator modules set at 30° C. and the conductivity changes monitored for up to 72 hours. The remainder of each test sample was stored in a 30° C. incubator during the RABIT monitoring period. At the completion of the RABIT monitoring period, the aliquot samples were placed back into their respective sample containers. Each test sample was then re-inoculated with a freshly prepared GABL inoculum. […]

Assay [2] has as its system mixed bacterial pool. The format is cell-based. The conditions noted are these: PVOH-stabilized VAE emulsion Tg 0, <1000 ppm vinyl acetate. As for the experimental part: The preservative efficacy of several cationic compounds in a poly(vinyl alcohol)-stabilized VAE copolymer emulsion (Tg=0) containing less than 1000 ppm vinyl acetate was assessed according to the following procedure:
Aeromonas hydrophilia, Alcaligenes faecalis, Corynebacterium ammoniagenes, Enterobacter aerogenes, Escherichia coli, Klebsiella pneumoniae, Pseudomonas aeruginosa, Proteus vulgaris, Providencia rettgeri, Pseudomonas stutzeri, Shewanella putrefaciens, Serratia liquefaciens, Acinetobacter baumannii, Burkholderia cepacia, Chryseobacterium meningosepticum, Sphingobacterium spiritivorum, Ralstonia pickettii, and GABL.
Mixed Bacterial Pool Inoculum Preparation
Each bacterial culture was individually grown on nutrient agar slants, except GABL was grown on potato dextrose agar slants, by inoculating the agar surfaces. The nutrient agar slants were incubated for 24-48 hours at 30° C. and the potato dextrose agar slants were incubated for 48-72 hours at 25° C. After this incubation period, the cells were harvested using quarter strength Ringers solution to wash the bacterial colonies off the agar surface. The washings from all of the slants were combined into one sterile, Erlenmeyer flask. The number of slants and the amount of Ringers Solution used to wash off the bacterial colonies is adjusted during the procedure to obtain a final mixed microbial viable count in the range of 10^8-10^10 CFU/mL.
Bacterial Biochallenge Test Procedure
The RABIT procedures were followed as described in Example 1, except the mixed bacterial pool inoculum was used to inoculate the test samples instead of the GABL inoculum.

Where two headings read alike, the source gives them in different places.

As to Benzalkonium chloride [TPI ® 1717], the “Inoculations Passed” value in assay [1] (biocide dosage 200 ppm active) and in assay [1] (biocide dosage 300 ppm active) was 0 throughout.

Take `CCCCCCCCCC[N+](C)(C)CCCCCCCCCC.[Cl-]` [BTC ® 1010, Didecyldimethylammonium chloride]: the “Inoculations Passed” value in assay [1] (biocide dosage 200 ppm active, listed as BTC 1010) came out at 3.

For the compound `CCCCCCCCCC[N+](C)(C)CCCCCCCCCC.[Cl-]` [TPI ® 1716, Didecyldimethylammonium chloride], the “Inoculations Passed” value in assay [1] (biocide dosage 100 ppm active) is reported as 0; in assay [1] (biocide dosage 200 ppm active, listed as TPI 1716), 2; in assay [1] (biocide dosage 300 ppm active), “≧5”.

For the compound “Tetrakis(hydroxymethyl) phosphonium sulfate [Tolcide ® PS]”, the “Inoculations Passed” value in assay [1] (biocide dosage 500 ppm active) worked out at 0.

With `N=C(NCCCCCCNC(=N)NC(=N)Nc1ccc(Cl)cc1)NC(=N)Nc1ccc(Cl)cc1.O=C(O)[C@H](O)[C@@H](O)[C@H](O)[C@H](O)CO.O=C(O)[C@H](O)[C@@H](O)[C@H](O)[C@H](O)CO` [Chlorhexidine digluconate, reference compound], in assay [1] (biocide dosage 250 ppm active), the “Inoculations Passed” value is 0.

`CCCCCCCCCCCCCCCC[n+]1ccccc1` [CPC, cetylpyridinium chloride, reference compound]: the “Inoculations Passed” value in assay [1] (biocide dosage 100 ppm active) stood at 0; in assay [1] (biocide dosage 250 ppm active), 2; in assay [1] (biocide dosage 300 ppm active), 5; in assay [2] (active biocide dosage 300 ppm), 5; in assay [2] (active biocide dosage 400 ppm), 7.

For `O=CCCCC=O` [Glutaraldehyde, reference compound], the “Inoculations Passed” value in assay [1] (biocide dosage 500 ppm active) was found to be 0. Also, in assay [1], the “preservative quality against GABL compared with cationic compounds (in words)” value is listed as “inferior preservatives” and the “efficacy against GABL (in words)” value is “ineffective”.

Take `CC(=O)O.CC(=O)O.NC(=N\CCCCCC/N=C(N)/N=C(\N)Nc1ccc(Cl)cc1)/N=C(\N)Nc1ccc(Cl)cc1` [Chlorhexidine diacetate, reference compound]: the “Inoculations Passed” value in assay [1] (biocide dosage 400 ppm active) worked out at 0.

As to `N#CCCC(Br)(C#N)CBr` (stereo not shown) [DBDCB, 1,2-dibromo-2,4-dicyanobutane, reference compound], the “Inoculations Passed” value in assay [1] (biocide dosage 450 ppm active) is on record as 0. In assay [1], the “preservative quality against GABL compared with cationic compounds (in words)” value is given as “inferior preservatives” and the “efficacy against GABL (in words)” value was “ineffective”.

Take `[H]/N=C(\N/C(=N/[H])NCCCCCCNC(=N)NC(=N)Nc1ccc(Cl)cc1)Nc1ccc(Cl)cc1` [chlorhexidine, reference compound]: in assay [1], the “preservative efficacy against GABL (in words)” value is “ineffective”.

As for `N#CC(Br)(Br)C(N)=O` [DBNPA, 2,2-dibromo-3-nitrilo-propionamide, reference compound], the “Inoculations Passed” value in assay [1] (biocide dosage 100 ppm active) came out at 0. Moreover, in assay [1], the “preservative quality against GABL compared with cationic compounds (in words)” value is on record as “inferior preservatives” and the “efficacy against GABL (in words)” value was “ineffective”.

Consider `CC(C)[C@H](N)C(=O)O` [Valine], for which the “Inoculations Passed” value in assay [1] (biocide dosage 1000 ppm active) is 0.

As for `NCC(=O)O` [Glycine], the “Inoculations Passed” value in assay [1] (biocide dosage 500 ppm active) is reported as 0.

`CCCCCCCCCCCCCCCC[N+](C)(C)C.[Br-]` [CTAB, cetyltrimethylammonium bromide]: the “Inoculations Passed” value in assay [1] (biocide dosage 300 ppm active) came to 1. Besides, in assay [1], the “preservative efficacy against GABL (in words)” value was “ineffective”.
